Results from patent publication US4971964A, “Pyridine derivatives” (priority 1988, dated 1990).

What was measured:
[1] = molecular target: T1, thromboxane synthase (TXA2 synthase), bovine platelet microsome (Bos taurus, UniProt Q2KIG5); assay: Test on Inhibition of TXA2 Biosynthesis (bovine platelet microsome, TXB2 by radioimmunoassay); type: biochemical; conditions: for IC50: bovine platelet microsome, pH 7.4, prostaglandin H2 substrate
T1 construct: bovine platelet microsome; from tissue; host or cells: bovine platelets (microsome)
T1 sequence (Q2KIG5 1-533): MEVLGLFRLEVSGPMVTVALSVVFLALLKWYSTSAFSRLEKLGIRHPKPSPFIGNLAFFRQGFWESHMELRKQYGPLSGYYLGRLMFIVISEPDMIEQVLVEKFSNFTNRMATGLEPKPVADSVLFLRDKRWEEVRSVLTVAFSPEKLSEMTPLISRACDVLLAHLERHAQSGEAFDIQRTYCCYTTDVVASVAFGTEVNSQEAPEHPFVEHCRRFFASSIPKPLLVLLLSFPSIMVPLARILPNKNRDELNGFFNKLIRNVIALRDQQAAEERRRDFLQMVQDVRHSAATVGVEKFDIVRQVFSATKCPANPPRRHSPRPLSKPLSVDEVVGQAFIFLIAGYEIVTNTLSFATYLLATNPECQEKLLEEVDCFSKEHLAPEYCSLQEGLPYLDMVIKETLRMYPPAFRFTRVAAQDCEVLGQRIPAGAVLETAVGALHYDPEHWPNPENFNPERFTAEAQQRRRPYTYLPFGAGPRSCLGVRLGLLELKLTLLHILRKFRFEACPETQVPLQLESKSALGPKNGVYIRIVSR
Experimental: A mixture of 70 μl of bovine platelet microsome [protein: 40 μg; 100 mM tris-HCl buffer (pH=7.4)] and 10 μl of a test compound solution (100 mM tris-HCl buffer containing 10% methanol) was allowed to stand at 0° C. for 5 minutes, and 20 μl of a prostaglandin H2 solution (100 mM tris-HCl buffer supplemented with acetone containing 0.1 nmol of prostaglandin H2) was added thereto as a substrate.
The amount of thromboxane B2 (TXB2) (stable degradation product of TXA2) produced in the system was determined by radioimmunoassay [F. A. Fitzpatrick et al., Methods in Enzymology, Vol. 86, p.286 (1982)].
Inhibition of TXB2 synthesis was evaluated by IC50 (50% inhibitory concentration) or percent inhibition as calculated from equation described below, and the results obtained are shown in Table 1. [formula]

dd male mice = assay: Acute Toxicity Test (minimum lethal dose, MLD); type: in vivo
Experimental: A test compound was given to dd male mice weighing 20±1 g (3 mice per group) per os. (p.o.; 300 mg/kg) or intraperitoneally (i.p.; 100 mg/kg). The mortality after 7 days from the administration was considered to determine the minimum lethal dose (MLD).

[2] = test system: collagen-induced ischemic ECG alterations in spontaneous hypertensive rats (SHR); assay: Test On Inhibition of Collagen-Induced Ischemic Alterations of Electrocardiogram; type: in vivo; conditions: 1 mg/kg, iv; for Change of ECG (score 0-3): mean ± standard error, N = 5 to 6
Experimental: Spontaneous hypertensive rats (SHR) (male; 25-30-week-old; available from Hoshino Jikken Dobutsu) were intraperitoneally anesthesized with sodium pentobarbital (60 mg/kg). Each animal was fixed on its back, a venous cannula was inserted into the left jugular vein, and electrocardiograms (ECG) in extremity leads II were taken. A solvent alone (physiological saline containing 0.05N sodium hydroxide) or the test compound (I-12Z or I-13E) dissolved in the same solvent was intravenously administered in an amount of 0.1 ml per 100 g of body weight. Three minutes later, 4.5 mg/kg of collagen III originating from the bovine skin was intravenously injected, and the changes of the ECG were observed over 10 minutes. The ischemic ECG alterations after the intravenous injection of collagen were scored based on the following system according to the method of Matsumura et al., Folia Pharmacol., Japon, and the significance of difference in scores of the control group receiving the solvent alone and the test group was examined by the U-test of Mann-Whitney.
0 . . . Changes of 0.05 mV or less in the S-T segment or the T wave
1 . . . Changes between 0.05 and 0.1 mV in the S-T segment or the T wave
2 . . . Changes of 0.1 mV or more in the S-T segment or the T wave
3 . . . Arrythmia or cardiac arrest

[3] = test system: silver nitrate-induced arteriothromboembolia in male Wistar-Shizuoka rats; assay: Test on Inhibition of Silver Nitrate-Induced Arteriothromboembolia in Rats; type: in vivo; conditions: for Number of Obstruction Case/Number of Experiments: control 23/26; for Percent Obstruction: control 88%; for percent obstruction vs control (in words): I-12Z 0.3, 1.0, or 3.0 mg/kg, I-13E 3 mg/kg
Source text: Male Wistar -Shizuoka rats weighing 270±20 g were anesthetized with urethane (1.5 g/kg) intraperitoneally. Each animal was fixed on its back, and a venous cannula and an arterial cannula were inserted into the left carotid vein and the left femoral artery, respectively. An abdominal incision was made, the intestinal tract was put aside so that the descending abdominal aorta could be seen, the surrounding connective tissues were removed, the descending aorta was detached to a length of about 1 cm, and the detached descending aorta was put on a globe of 8 cm in diameter. A solvent (0.1 ml; physiological saline containing 0.05N sodium hydroxide) or a drug solution (0.1 ml) in the solvent was injected via the cannulated carotid vein per 100 g of body weight. Three minutes later, a 30% silver nitrate aqueous solution was dropped on the detached descending abdominal aorta. Five minutes later, the globe was removed, and the affected site was washed three times with physiological saline to stop the reaction. After the elapse of 30 minutes from the stopping of the reaction, the blood pressure of the femoral artery was measured, and the pressure fall was taken as an indication of obstruction of the descending arterial. Significance of the difference in degree of the obstruction between the control group (only the solvent was administered) and the test group was assayed by X^2 -assay.

[4] = dd male mice, mortality after 7 days
[5] = 0.5 min after collagen injection
[6] = 10 min after collagen injection

SMILES | IC50 [1] | Acute Toxicity (MLD) ip (dd male mice; [4]) | ECG changes vs control (in words) [2] | Change of ECG (score 0-3) [2, 5] | Change of ECG (score 0-3) ([2]; 1 min after collagen injection) | Change of ECG (score 0-3) ([2]; 2 min after collagen injection) | Change of ECG (score 0-3) ([2]; 3 min after collagen injection) | Change of ECG (score 0-3) ([2]; 4 min after collagen injection) | Change of ECG (score 0-3) ([2]; 5 min after collagen injection) | Change of ECG (score 0-3) ([2]; 6 min after collagen injection) | Change of ECG (score 0-3) ([2]; 7 min after collagen injection) | Change of ECG (score 0-3) ([2]; 8 min after collagen injection) | Change of ECG (score 0-3) ([2]; 9 min after collagen injection) | Change of ECG (score 0-3) [2, 6] | Number of Obstruction Case/Number of Experiments ([3]; 1.0 mg/kg i.v.) | Percent Obstruction ([3]; 1.0 mg/kg i.v.) | Number of Obstruction Case/Number of Experiments ([3]; 3.0 mg/kg i.v.) | Percent Obstruction ([3]; 3.0 mg/kg i.v.) | percent obstruction vs control (in words) ([3]; i.v.) | Acute Toxicity (MLD) po (dd male mice; [4]) | further results
COC1=Nc2ccncc2/C(=C/CCCCC(=O)O)c2ccccc21 [Compound I-13E, (E)-11-(5-Carboxypentylidene)-6-methoxy-11H-pyrido[4,3-c][2]benzazepin] | 0.0084 µM | > 100 mg/kg | significantly smaller than those in the control groups | 0 ± 0 | 0.2 ± 0.2 | 0.2 ± 0.2 | 0.2 ± 0.2 | 0.6 ± 0.4 | 0.2 ± 0.2 | 0.4 ± 0.2 | 0.4 ± 0.2 | 0.4 ± 0.2 | 0.4 ± 0.2 | 0.2 ± 0.2 | 3/4 | 75% | 1/5 | 20% | significantly lower than that of the control group |  | Acute Toxicity (MLD) po (dd male mice; mouse, in vivo, 10080 min): > 300 mg/kg
CN1C(=O)c2ccncc2/C(=C\CCCCC(=O)O)c2ccccc21 [Compound I-12Z, (Z)-11-(5-carboxypentylidene)-6-methyl-5,11-dihydropyrido[4,3-c][1]benzazepin-5(6H)-one] | 0.034 µM | > 100 mg/kg | significantly smaller than those in the control groups | 0.8 ± 0.5 | 0.5 ± 0.2 | 1.0 ± 0.4 | 0.8 ± 0.3 | 0.7 ± 0.2 | 0.2 ± 0.2 | 0.3 ± 0.2 | 0.5 ± 0.2 | 0.5 ± 0.2 | 0.4 ± 0.2 | 0.3 ± 0.2 | 0/5 | 0% | 1/5 | 20% | significantly lower than that of the control group | > 300 mg/kg | Number of Obstruction Case/Number of Experiments ([3]; 0.1 mg/kg i.v.): 4/6; Percent Obstruction ([3]; 0.1 mg/kg i.v.): 67%; Number of Obstruction Case/Number of Experiments ([3]; 0.3 mg/kg i.v.): 1/5; Percent Obstruction ([3]; 0.3 mg/kg i.v.): 20%; inhibition of obstruction vs comparative drugs CV-4151 and OKY-1581 (in words) ([3]; i.v.): inhibition of obstruction at lower doses as compared with the comparative drugs, CV-4151 and OKY-1581
O=C(O)CCCCC=C1c2ccncc2CNc2ccccc21 [Compound I-23, 5-(5-carboxypentylidene)-5H-10,11-dihydropyrido[3,4-c][1]benzazepin] |  | > 100 mg/kg |  |  |  |  |  |  |  |  |  |  |  |  |  |  |  |  |  | > 300 mg/kg | inhibition at 10 µM [1]: 27%
O=C(O)CCCC/C=C1/c2ccccc2NC(=O)c2ccncc21 [Compound I-10Z, (Z)-11-(5-carboxypentylidene)-5,11-dihydropyrido[4,3-c][1]benzazepin-5(6H)-one] | 0.016 µM | > 100 mg/kg |  |  |  |  |  |  |  |  |  |  |  |  |  |  |  |  |  | > 300 mg/kg | 
O=C(O)CCCC/C=C1/c2ccccc2NC(=O)c2cnccc21 [Compound I-19E, (E)-5-(5-Carboxypentylidene)-5,11-dihydropyrido[3,4-c][1]benzazepin-11(10H)-one] |  | > 100 mg/kg |  |  |  |  |  |  |  |  |  |  |  |  |  |  |  |  |  | > 300 mg/kg | inhibition at 10 µM [1]: 13%
